Like-named read-outs stand apart in the source and are kept apart here.
Key:
hGSTA4-4 = biological target: T1, hGSTA4-4 (Homo sapiens, UniProt O15217); test: hGSTA4-4 enzyme inhibition assay (CDNB-GSH conjugation, 340 nm); settings: for inhibition at 100 µM: read-out: Enzyme Inhibition (%), hGSTA4-4, compound at 100 μM, mean of three experiments; for Enzyme Inhibition (%): hGSTA4-4, compound at 100 μM, mean of three experiments, 100 µM
T1 sequence (O15217 1-222): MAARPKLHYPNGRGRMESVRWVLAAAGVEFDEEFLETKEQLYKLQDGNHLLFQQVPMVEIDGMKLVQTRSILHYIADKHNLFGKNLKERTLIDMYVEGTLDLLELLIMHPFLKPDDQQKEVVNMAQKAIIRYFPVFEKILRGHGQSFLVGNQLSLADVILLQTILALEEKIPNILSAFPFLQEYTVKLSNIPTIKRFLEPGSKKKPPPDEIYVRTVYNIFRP
Protocol: hGSTA4-4 activity was determined by monitoring (at 25 °C) the formation of the conjugate between CDNB and GSH at 340 nm (ε = 9600 L·mol^−1·cm^−1) for 120 s, as previously described [58]. One unit of enzyme activity is defined as the amount of enzyme that produces 1.0 μmol of product per minute under the assay conditions. The tested natural products and monocarbonyl curcumin derivatives were dissolved in DMSO (100 μΜ) and added to the assay mixture (the volume of DMSO was maintained at a 2% v/v final concentration). Initial velocities were determined in triplicates and were corrected for spontaneous reaction rates, when necessary. […] The IC50 values were determined from a graph of the remaining enzyme activity (%) against inhibitor concentration. The computer program GraphPad Prism version 8 (GraphPad Prism Software, Inc., Boston, MA, USA) was used for producing kinetic graphs and determining apparent kinetic parameters/constants and IC50 values.

U-251 MG cells [1] = test: In vitro cytotoxicity, MTT assay, U-251 MG; type: cell-based, human; settings: 48 h
Protocol: (§1) U-251 and U-87 MG cells were grown in Dulbecco’s modified Eagle’s growth medium (pH 7.4) supplemented with 10% FBS, 100 U/mL penicillin, 2 mM glutamine, and 100 μg/mL streptomycin. Cell cultures were maintained in flasks and grown at 37 °C in a humidified atmosphere of 5% CO2. Subconfluent cells were detached using 0.05% (w/v) trypsin−0.25% (w/v) ethylenediaminetetraacetic acid solution at a subcultivation ratio of 1:2 to 1:5. […] Cells were seeded in 96-well plates (8 × 10^3 cells/well in 100 μL culture medium) and grown overnight at 37 °C in a 5% CO2 incubator. Exponentially growing cells were incubated for 48 h with various concentrations ranging between 10^−3 and 10^−8 M of each compound. The final DMSO concentration never exceeded 0.2%. The medium was then removed and replaced with 100 μL MTT solution (1 mg/mL). After 4 h incubation, the solution was aspirated, formazan crystals were solubilized in 100 μL DMSO, and the absorbance was recorded at 540 nm (Tecan well plate reader). The same procedure was followed for the TMZ sensitization experiments. […] Data were analyzed using the GraphPad Prism 5.0 software.

[2] = In vitro cytotoxicity, MTT assay, U-251 MG; type: cell-based, human; settings: human, U-251 MG cells, pH 7.4, U-251 MG cells
Protocol: as §1

U-251 MG cells [3] = test: TMZ sensitization experiment, MTT assay, U-251 MG; type: cell-based, human
Protocol: as §1, with “Cell” for “U-251 and U-87 MG cells were grown in Dulbecco’s modified Eagle’s growth medium (pH 7.4) supplemented with 10% FBS, 100 U/mL penicillin, 2 mM glutamine, and 100 μg/mL streptomycin. Cell”, “CO2.” for “CO2. Subconfluent cells were detached using 0.05% (w/v) trypsin−0.25% (w/v) ethylenediaminetetraacetic acid solution at a subcultivation ratio of 1:2 to 1:5.”

[4] = In vitro cytotoxicity, MTT assay, U-87 MG; type: cell-based, human; settings: human, U-87 MG cells, pH 7.4, U-87 MG cells
Protocol: as §1

U-87 MG cells [5] = test: In vitro cytotoxicity, MTT assay, U-87 MG; type: cell-based, human; settings: 48 h
Protocol: as §1

U-87 MG cells [6] = settings: cited from earlier work
hGSTP1-1 = biological target: hGSTP1-1; set-up: method as in PMID 36670925; settings: cited from earlier work; for Ki: read-out: inhibition constant Ki

O=C(O[C@@H]1Cc2c(O)cc(O)cc2O[C@@H]1c1cc(O)c(O)c(O)c1)c1cc(O)c(O)c(O)c1 [Epigallocatechin gallate]
inhibition at 100 µM (hGSTA4-4): 86.4%

OC[C@H]1O[C@@H](Oc2cc(O)cc(/C=C/c3ccc(O)cc3)c2)[C@H](O)[C@@H](O)[C@@H]1O [Polydatin]
inhibition at 100 µM (hGSTA4-4): 32.3%

O=C(/C=C/c1ccc(O)c(O)c1)/C=C/c1ccc(O)c(O)c1 [DM148]
inhibition at 100 µM (hGSTA4-4): 4.6%
IC50 (U-251 MG cells [1]): 89.2 ± 3.41 µM
IC50 at 48 h [2]: 89.2 µM
cell survival (U-251 MG cells [3]; 48 h, compound alone at 10 μM): > 85%
change of cell survival in combination with TMZ (U-251 MG cells [3]; compound 10 μM + TMZ 150 μM, added together or 3 or 6 h pre-incubation, 48 h): did not result in any dramatic changes
IC50 at 48 h [4]: 91.1 µM
IC50 (U-87 MG cells [5]): 91.1 ± 5.64 µM

O=c1oc2c(O)c(O)cc3c(=O)oc4c(O)c(O)cc1c4c23 [Ellagic acid, Ellagic Acid]
IC50 (hGSTA4-4): 0.44 ± 0.01 µM
Enzyme Inhibition (%) (hGSTA4-4): 95.1%
inhibition at 100 µM (hGSTA4-4): 95%
IC50 (U-87 MG cells [6]; 48 h treatment, read-out: IC50 (cytotoxicity)): 91.2 µM

COc1cc(/C=C/C(=O)/C=C/c2ccc(O)c(OC)c2)ccc1O [DM101]
IC50 (hGSTA4-4): 12.7 ± 1.1 µM
Enzyme Inhibition (%) (hGSTA4-4): 94.1%
inhibition at 100 µM (hGSTA4-4): > 90%

O=C1C[C@@H](c2ccc(O)cc2)Oc2cc(O)cc(O)c21 [Naringenin]
inhibition at 100 µM (hGSTA4-4): 28.5%

O=c1c(O)c(-c2ccc(O)c(O)c2)oc2cc(O)cc(O)c12 [Quercetin]
inhibition at 100 µM (hGSTA4-4): 84.7%

COc1cc(/C=C2\CCC/C(=C\c3ccc(O)c(OC)c3)C2=O)ccc1O [DM100]
IC50 (hGSTA4-4): 16.9 ± 0.4 µM
Enzyme Inhibition (%) (hGSTA4-4): 95.1%
inhibition at 100 µM (hGSTA4-4): > 90%

O=C(O)/C=C/c1ccc(O)cc1 [Coumaric Acid]
inhibition at 100 µM (hGSTA4-4): 27.3%

CC1=C(C=O)C(C)(C)CC=C1 [Safranal]
inhibition at 100 µM (hGSTA4-4): 21.8%

O=C(O)c1cc(O)c(O)c(O)c1 [Gallic acid]
inhibition at 100 µM (hGSTA4-4): 20.8%

COc1ccc(/C=C2\CCC/C(=C\c3ccc(OC)c(OC)c3)C2=O)cc1OC [DM57]
inhibition at 100 µM (hGSTA4-4): 55.7%

COc1cc(/C=C/C(=O)CC(=O)/C=C/c2ccc(O)c(OC)c2)ccc1O [Curcumin]
inhibition at 100 µM (hGSTA4-4): 80.9%

COc1ccc(/C=C2\CCC/C(=C\c3ccc(OC)cc3)C2=O)cc1 [DM46]
inhibition at 100 µM (hGSTA4-4): 64.9%

COc1ccc(/C=C/C(=O)/C=C/c2ccc(OC)c(OC)c2)cc1OC [DM95]
inhibition at 100 µM (hGSTA4-4): 54.8%

O=C(/C=C/c1ccc(O)cc1)/C=C/c1ccc(O)cc1 [DM96]
Enzyme Inhibition (%) (hGSTA4-4): 81.8%
inhibition at 100 µM (hGSTA4-4): > 90%

Cn1nnc2c(C(N)=O)ncn2c1=O [TMZ, temozolomide]
cell survival (U-251 MG cells [3]; 48 h, TMZ alone at 150 μM): > 85%
IC50 (U-87 MG cells [6]; 48 h, interquartile range, read-out: IQR of IC50): 92 to 590 µM
IC50 (U-87 MG cells [6]; 48 h, read-out: median IC50): 223 µM

O=C1c2c(O)cc(O)cc2O[C@H](c2ccc(O)c(O)c2)[C@H]1O [Taxifolin hydrate]
Enzyme Inhibition (%) (hGSTA4-4): 40.37%
inhibition at 100 µM (hGSTA4-4): 40%

O=C1/C(=C/c2ccc(O)c(O)c2)CCC/C1=C\c1ccc(O)c(O)c1 [DM151]
IC50 (U-251 MG cells [1]): 25.6 ± 4.83 µM
IC50 at 48 h [2]: 25.5 µM
cell survival in combination with TMZ (U-251 MG cells [3]; 3 h pretreatment with compound 10 μM, then TMZ 150 μM 48 h): 45%
cell survival in combination with TMZ (U-251 MG cells [3]; 6 h pretreatment with compound 10 μM, then TMZ 150 μM 48 h): approximately 35%
cell survival (U-251 MG cells [3]; 48 h, compound alone at 10 μM): > 85%
cell survival in combination with TMZ (U-251 MG cells [3]; compound 10 μM + TMZ 150 μM added together, 48 h): 55%
Ki (hGSTP1-1; hGSTP1-1, CDNB substrate): 9.55 µM
type of inhibition (hGSTP1-1; hGSTP1-1, both GSH and CDNB substrates): purely non-competitive
Ki (hGSTP1-1; hGSTP1-1, variable substrate GSH): 5.79 µM
IC50 at 48 h [4]: 18.9 µM
IC50 (U-87 MG cells [5]): 18.9 ± 5.81 µM

O=C1/C(=C/c2ccc(F)cc2)CCC/C1=C\c1ccc(F)cc1 [DM62]
inhibition at 100 µM (hGSTA4-4): 74.9%

O=C(/C=C/c1ccc(F)cc1)/C=C/c1ccc(F)cc1 [DM109]
inhibition at 100 µM (hGSTA4-4): 73.9%

COc1cc2c(c(OC)c1OC)-c1ccc(OC)c(=O)cc1[C@@H](NC(C)=O)CC2 [Colchicine]
Enzyme Inhibition (%) (hGSTA4-4): 17.1%
inhibition at 100 µM (hGSTA4-4): 17%

Oc1ccc(/C=C/c2cc(O)cc(O)c2)cc1 [Resveratrol]
Enzyme Inhibition (%) (hGSTA4-4): 8.87%
inhibition at 100 µM (hGSTA4-4): 8.9%

Source: article PMC10974579, “A Monocarbonyl Curcuminoid Derivative Inhibits the Activity of Human Glutathione Transferase A4-4 and Chemosensitizes Glioblastoma Cells to Temozolomide” (Pharmaceuticals, 2024)
